In brackets after ≈: the same amount, converted by molar mass. Where two headings read alike, the source gives them in different places. Non-standard residues stand in square brackets, D forms with d. Residues, ends and D or L forms follow the SMILES beside them. Dap = NC[C@H](N)C(=O)O
Tests used:
[1] = cited from earlier work
Source text: (§1) Overall, our work highlights the potential of […] analogs in comparison to related Trp-rich AMPs as potent antibiofilm peptides that can interfere in biofilms produced by P. aeruginosa and potentially other Gram-negative pathogenic bacteria. New antibiofilm agents are welcome for this organism, as P. aeruginosa is well-known to have numerous mechanisms to elude the action of antibiotics during biofilm formation. Various factors can influence the suitability of AMPs to act as bactericidal and antibiofilm peptides simultaneously (for a general discussion see, for example, [74]). One ...

P. aeruginosa PAO1 GFP [2] = experiment: MIC against planktonic cells, absorbance at 600 nm; format: cell-based, Pseudomonas aeruginosa; conditions: absorbance 600 nm
Outline: (§2)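 GFP-expressing P. aeruginosa PAO1 exposed to peptides; planktonic MIC read by absorbance at 600 nm, while MBIC (prevention) and MBEC (eradication) used biofilm GFP fluorescence at 480/530 nm. Triplicate biological replicates averaged, with untreated growth and medium-only controls on each plate.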

P. aeruginosa PAO1 [3] = format: cell-based, Pseudomonas aeruginosa; conditions: absorbance 600 nm
Outline: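 PAO1 tested with peptides in 1× BM2; planktonic growth read at 600 nm, biofilm quantified by 0.1% crystal violet staining (15 min), ethanol release and 595 nm reading, using a Calgary biofilm device. Values are means of three replicates with untreated-growth and medium-only controls.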

P. aeruginosa PAO1 [4] = format: cell-based
Outline: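 Peptides tested against P. aeruginosa PAO1 in 1× BM2 medium; planktonic growth read at 600 nm for MIC. Biofilm inhibition and eradication quantified by 0.1% crystal violet staining (15 min), ethanol release, absorbance at 595 nm, plus GFP-fluorescence and Calgary peg-device methods; triplicate means.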

P. aeruginosa PAO1 GFP [5] = experiment: MBEC, biofilm eradication, GFP fluorescence method; format: cell-based, Pseudomonas aeruginosa
Outline: as §2

P. aeruginosa PAO1 GFP [6] = experiment: MBIC, prevention of biofilm formation, GFP fluorescence method; format: cell-based, Pseudomonas aeruginosa
Outline: as §2

red blood cells = conditions: cited from earlier work
Source text: as §1

[7] = tested on: peripheral blood mononuclear cells (PBMCs); conditions: cited from earlier work
Source text: as §1

S. aureus GFP [8] = format: cell-based, Staphylococcus aureus; conditions: Table 4; Sa GFP; lowest concentration of peptide with no bacterial growth seen on the spot agar plate
S. aureus GFP [9] = experiment: MBIC, GFP fluorescence method; format: cell-based, Staphylococcus aureus; conditions: Table 4, Sa GFP, 10% TSB and 0.1% glucose, mean of three biological replicates
Outline: (§3)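 GFP-expressing S. aureus, triplicate biological replicates. MIC on planktonic cells by absorbance at 600 nm. MBIC and MBEC from biofilm GFP fluorescence (480/530 nm), with untreated growth and media-only controls.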

S. aureus GFP [10] = experiment: MIC against planktonic cells, absorbance at 600 nm; format: cell-based, Staphylococcus aureus; conditions: Table 4; Sa GFP, 10% TSB and 0.1% glucose; absorbance 600 nm; mean of three biological replicates
Outline: as §3

S. aureus GFP [11] = experiment: MBEC, GFP fluorescence method; format: cell-based, Staphylococcus aureus; conditions: Table 4, Sa GFP, 10% TSB and 0.1% glucose, mean of three biological replicates
Outline: as §3

P. aeruginosa PAO1 [12] = format: cell-based, Pseudomonas aeruginosa; conditions: Table 5; PAO1, 1x BM2; biofilms on pegs, cells plated and counted; three biological replicates
Outline: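 Biofilm eradication (MBEC) for peptides against P. aeruginosa PAO1 in 1× BM2 medium, from counts of biofilm cells; GFP-producing strain fluorescence, crystal violet staining and Calgary peg device also used. Three biological replicates, mean ± SD, with untreated growth and medium-only controls.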

[13] = Table 3, Tritrp-Lys derivatives, BM2 medium, three replicates
[14] = Table 6, Tritrp-Lys derivatives, PAO1, BM2, three replicates, unit not given
[15] = Table 6, Tritrp-Lys derivatives, PAO1, BM2, 0.1% crystal violet 15 min, released with 95% ethanol, 595 nm, three replicates, unit not given
[16] = Table 2, BM2 medium, mean of three biological replicates
[17] = Table 5, regular PAO1 (no GFP), 1x BM2, mean of three biological replicates

NCC(N)C(=O)O (stereo not drawn) [Dap, 2,3-diaminopropionic acid]
sidechain pKa value [1]: 6.3

CC(C)C[C@H](NC(=O)[C@H](Cc1ccccc1)NC(=O)[C@@H]1CCCN1C(=O)[C@H](Cc1c[nH]c2ccccc12)NC(=O)[C@H](Cc1c[nH]c2ccccc12)NC(=O)[C@H](Cc1c[nH]c2ccccc12)NC(=O)[C@@H]1CCCN1C(=O)[C@H](Cc1ccccc1)NC(=O)[C@H](CN)NC(=O)[C@H](CN)NC(=O)[C@@H](N)C(C)C)C(=O)N[C@@H](CN)C(=O)N[C@@H](CN)C(N)=O [Tritrp-Dap] (H-V[Dap][Dap]FPWWWPFL[Dap][Dap]-NH2; N-terminus assumed)
MIC at 600 nm LD50 (P. aeruginosa PAO1 GFP [2]; [13]): 8 µM (≈ 13 µg/mL) | MIC at 600 nm LD90 (P. aeruginosa PAO1 GFP [2]; [13]): 8 µM (≈ 13 µg/mL) | MIC at 600 nm LD50 (P. aeruginosa PAO1 [3]; [14]): 8 | MIC at 600 nm LD90 (P. aeruginosa PAO1 [3]; [14]): 16 | MBEC (CV at 595 nm) LD90 (P. aeruginosa PAO1 [4]; [15]): 64 | MBIC (CV at 595 nm) LD90 (P. aeruginosa PAO1 [4]; [15]): 16 | MBEC at 488 and 530 nm LD50 (P. aeruginosa PAO1 GFP [5]; [13]): 8 µmol/L | MBEC at 488 and 530 nm LD90 (P. aeruginosa PAO1 GFP [5]; [13]): 64 µmol/L | MBIC at 488 and 530 nm LD50 (P. aeruginosa PAO1 GFP [6]; [13]): 8 µmol/L | MBIC at 488 and 530 nm LD90 (P. aeruginosa PAO1 GFP [6]; [13]): 16 µmol/L | effect on RBCs (red blood cells): no effect | cytotoxicity activities against PBMCs [7]: no effect

CC(C)C[C@H](NC(=O)[C@H](Cc1ccccc1)NC(=O)[C@H](C)NC(=O)[C@H](Cc1c[nH]c2ccccc12)NC(=O)[C@H](Cc1c[nH]c2ccccc12)NC(=O)[C@H](Cc1c[nH]c2ccccc12)NC(=O)[C@@H]1CCCN1C(=O)[C@H](Cc1ccccc1)NC(=O)[C@H](CCCNC(=N)N)NC(=O)[C@H](CCCNC(=N)N)NC(=O)[C@@H](N)C(C)C)C(=O)N[C@@H](CCCNC(=N)N)C(=O)N[C@@H](CCCNC(=N)N)C(N)=O [Tritrp-P9A] (H-VRRFPWWWAFLRR-NH2)
MBC Agar Plate (S. aureus GFP [8]): 2 µM (≈ 3.75 µg/mL) | MBIC at 488 and 530 nm LD50 (S. aureus GFP [9]): 0.25 µmol/L | MBIC at 488 and 530 nm LD90 (S. aureus GFP [9]): 2 µmol/L | MIC at 600 nm LD50 (S. aureus GFP [10]): 0.25 µM (≈ 0.469 µg/mL) | MIC at 600 nm LD90 (S. aureus GFP [10]): 1 µM (≈ 1.88 µg/mL) | MIC at 600 nm LD50 (P. aeruginosa PAO1 GFP [2]; [16]): 2 µM (≈ 3.75 µg/mL) | MIC at 600 nm LD90 (P. aeruginosa PAO1 GFP [2]; [16]): 2 µM (≈ 3.75 µg/mL) | MBEC at 488 and 530 nm LD50 (S. aureus GFP [11]): 0.5 µmol/L | MBEC at 488 and 530 nm LD90 (S. aureus GFP [11]): 2 µmol/L | MIC at 600 nm LD50 (P. aeruginosa PAO1 [3]; [17]): 2 µmol/L (≈ 3.75 µg/mL) | MIC at 600 nm LD90 (P. aeruginosa PAO1 [3]; [17]): 2 µmol/L (≈ 3.75 µg/mL) | MBIC (CV at 595 nm) LD50 (P. aeruginosa PAO1 [4]; PAO1): 1 µmol/L | MBRC (CV at 595 nm) LD50 (P. aeruginosa PAO1 [4]; PAO1): 16 µmol/L | MBIC (CV at 595 nm) LD90 (P. aeruginosa PAO1 [4]; Table 5, PAO1, 1x BM2, crystal violet at 595 nm, mean of three biological replicates): 2 µmol/L | MBRC (CV at 595 nm) LD90 (P. aeruginosa PAO1 [4]; Table 5, minimum biofilm reduction concentration, PAO1, 1x BM2, crystal violet at 595 nm, mean of three biological replicates): 32 µmol/L | MBEC from Calgary Biofilm Device (CBD) LD50 (P. aeruginosa PAO1 [12]): 8 µmol/L | MBEC from Calgary Biofilm Device (CBD) LD90 (P. aeruginosa PAO1 [12]): 16 µmol/L | MBEC at 488 and 530 nm LD50 (P. aeruginosa PAO1 GFP [5]; [16]): 4 µmol/L | MBEC at 488 and 530 nm LD90 (P. aeruginosa PAO1 GFP [5]; [16]): 8 µmol/L | MBIC at 488 and 530 nm LD50 (P. aeruginosa PAO1 GFP [6]; [16]): 0.25 µmol/L | MBIC at 488 and 530 nm LD90 (P. aeruginosa PAO1 GFP [6]; [16]): 2 µmol/L | hemolytic activity (red blood cells): slightly more modest | cytotoxicity activities against PBMCs [7]: quite strong

Source: publication PMC11858513, “Antibiofilm Activities of Tritrpticin Analogs Against Pathogenic Pseudomonas aeruginosa PA01 Strains” (Molecules, 2025)
